The values that follow come from US9458120B2, “Phenoxypropanol derivative and pharmaceutical composition including the same” (KOREA INSTITUTE OF SCIENCE AND TECHNOLOGY, priority 2011, dated 2016).

For one assay, the target named is T1, TREK-1 channel (Rattus norvegicus, UniProt Q920B6).
T1 construct: expressed in transfected cells; host or cells: COS7 (Korean Cell Line Bank), transient transfection with Effectene
T1 sequence (Q920B6 1-426): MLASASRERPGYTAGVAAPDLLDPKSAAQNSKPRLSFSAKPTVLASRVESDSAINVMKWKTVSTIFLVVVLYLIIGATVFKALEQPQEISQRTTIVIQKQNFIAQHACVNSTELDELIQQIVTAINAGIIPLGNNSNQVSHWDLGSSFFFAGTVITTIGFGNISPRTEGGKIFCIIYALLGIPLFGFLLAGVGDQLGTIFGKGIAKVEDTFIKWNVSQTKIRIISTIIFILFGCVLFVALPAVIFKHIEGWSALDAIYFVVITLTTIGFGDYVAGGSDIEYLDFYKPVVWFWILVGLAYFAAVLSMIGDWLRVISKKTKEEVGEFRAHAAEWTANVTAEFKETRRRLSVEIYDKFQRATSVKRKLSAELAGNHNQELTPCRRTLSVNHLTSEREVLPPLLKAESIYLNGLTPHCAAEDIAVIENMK
Nature of the assay: Assay for TREK channel inhibition activity (whole cell patch clamp recording, COS7 cell transfected with GFP-rTREK-1). The format is cell-based. Particulars: COS-7, Table 3 (value ± spread); 101 μM [sic]; COS7 cells, GFP-rTREK-1, whole-cell patch clamp; read-out: block % at 101 μM. The method, boiled down: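 Whole-cell patch clamp was run on COS7 cells 24 h after transfection with GFP-rTREK-1, held at −70 mV, using a 1 s ramp from −100 to +100 mV. Current was taken as the difference between +100 and −100 mV values. Block % = 100 − (current after/before blocker) × 100.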

Assay [1] addresses α1G T-type calcium channel (Homo sapiens, UniProt O43497). Nature of the assay: Assay for T-type calcium channel inhibition activity (FDSS6000 calcium imaging, KCl activation). It is filed as cell-based. Particulars: 75 s pre-treatment then KCl 75 mM, HEK293 cells expressing α1G T-type calcium channel and Kir2.1.

Sequence of α1G T-type calcium channel (O43497 whole entry): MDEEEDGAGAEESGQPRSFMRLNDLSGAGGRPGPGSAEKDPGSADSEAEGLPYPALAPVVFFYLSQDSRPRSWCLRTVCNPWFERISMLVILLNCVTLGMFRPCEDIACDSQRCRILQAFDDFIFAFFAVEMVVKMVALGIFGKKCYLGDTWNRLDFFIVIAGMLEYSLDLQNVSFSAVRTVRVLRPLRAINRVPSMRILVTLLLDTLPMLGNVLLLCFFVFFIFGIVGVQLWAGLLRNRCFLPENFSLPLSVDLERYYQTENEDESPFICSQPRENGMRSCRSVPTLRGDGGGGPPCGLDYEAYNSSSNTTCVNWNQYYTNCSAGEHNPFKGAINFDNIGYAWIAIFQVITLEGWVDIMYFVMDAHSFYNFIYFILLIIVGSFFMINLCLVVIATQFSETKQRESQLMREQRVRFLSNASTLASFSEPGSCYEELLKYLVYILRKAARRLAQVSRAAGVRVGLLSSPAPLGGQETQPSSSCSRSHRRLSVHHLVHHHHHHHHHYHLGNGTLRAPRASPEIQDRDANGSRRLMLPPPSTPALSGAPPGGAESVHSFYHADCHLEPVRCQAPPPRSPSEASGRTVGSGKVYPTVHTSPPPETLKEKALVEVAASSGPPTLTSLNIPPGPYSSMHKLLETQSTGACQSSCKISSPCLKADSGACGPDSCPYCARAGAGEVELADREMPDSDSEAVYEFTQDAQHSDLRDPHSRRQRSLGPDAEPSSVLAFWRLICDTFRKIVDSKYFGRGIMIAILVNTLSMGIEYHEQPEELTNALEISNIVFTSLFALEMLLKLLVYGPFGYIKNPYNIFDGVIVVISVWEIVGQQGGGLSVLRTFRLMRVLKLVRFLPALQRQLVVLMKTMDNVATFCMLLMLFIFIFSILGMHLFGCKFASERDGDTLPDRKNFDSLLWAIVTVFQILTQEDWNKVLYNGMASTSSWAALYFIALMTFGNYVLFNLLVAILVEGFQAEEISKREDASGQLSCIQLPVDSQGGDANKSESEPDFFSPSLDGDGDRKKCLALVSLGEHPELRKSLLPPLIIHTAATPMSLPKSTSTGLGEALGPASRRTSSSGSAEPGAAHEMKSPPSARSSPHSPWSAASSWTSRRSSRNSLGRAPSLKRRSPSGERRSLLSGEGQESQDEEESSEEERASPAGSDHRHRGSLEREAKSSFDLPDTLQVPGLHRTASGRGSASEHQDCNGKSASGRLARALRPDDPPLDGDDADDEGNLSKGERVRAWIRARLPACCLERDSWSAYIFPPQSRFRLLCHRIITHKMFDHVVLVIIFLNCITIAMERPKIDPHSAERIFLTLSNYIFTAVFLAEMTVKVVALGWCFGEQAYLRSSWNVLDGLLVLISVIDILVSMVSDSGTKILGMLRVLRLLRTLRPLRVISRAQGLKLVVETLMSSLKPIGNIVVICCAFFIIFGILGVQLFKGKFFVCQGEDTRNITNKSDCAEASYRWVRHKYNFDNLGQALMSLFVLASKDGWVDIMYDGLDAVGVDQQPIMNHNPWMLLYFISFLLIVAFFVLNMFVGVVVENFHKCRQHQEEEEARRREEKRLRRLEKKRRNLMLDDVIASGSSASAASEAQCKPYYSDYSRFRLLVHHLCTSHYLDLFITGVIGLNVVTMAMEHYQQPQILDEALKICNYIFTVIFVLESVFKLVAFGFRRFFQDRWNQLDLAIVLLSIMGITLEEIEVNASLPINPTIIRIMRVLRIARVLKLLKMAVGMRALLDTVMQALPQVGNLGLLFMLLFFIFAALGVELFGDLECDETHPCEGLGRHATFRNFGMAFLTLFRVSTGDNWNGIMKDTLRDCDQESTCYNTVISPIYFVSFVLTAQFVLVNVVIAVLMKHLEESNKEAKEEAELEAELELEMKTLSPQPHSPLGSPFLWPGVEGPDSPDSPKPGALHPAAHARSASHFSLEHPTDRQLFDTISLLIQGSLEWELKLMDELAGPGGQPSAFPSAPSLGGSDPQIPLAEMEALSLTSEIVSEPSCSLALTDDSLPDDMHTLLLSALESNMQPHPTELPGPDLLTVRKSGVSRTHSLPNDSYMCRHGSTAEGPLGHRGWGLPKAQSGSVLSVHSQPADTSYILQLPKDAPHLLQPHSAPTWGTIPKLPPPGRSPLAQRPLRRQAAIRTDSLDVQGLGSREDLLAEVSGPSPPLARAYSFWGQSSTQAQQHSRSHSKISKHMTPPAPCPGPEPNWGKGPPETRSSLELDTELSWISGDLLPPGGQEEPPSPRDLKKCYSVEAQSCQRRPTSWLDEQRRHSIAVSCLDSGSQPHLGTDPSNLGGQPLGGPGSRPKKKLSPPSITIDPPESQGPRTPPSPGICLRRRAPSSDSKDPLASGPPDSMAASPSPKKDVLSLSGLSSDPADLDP

For the compound `Cc1ccccc1-n1nc(CNC(=O)CN2CCN(C[C@H](O)COc3ccc(F)cc3)CC2)cc1CC(C)C` [KKRE10227, (S)-2-(4-(3-(4-Fluorophenoxy)-2-hydroxypropyl)piperazin-1-yl)-N-((5-isobutyl-1-o-tolyl-1H-pyrazol-3-yl)methyl)acetamide], the inhibition at 101 µM at TREK-1 channel amounted to 69.8 ± 4.78%. The inhibition in assay [1] worked out at 74.7%.

`CC(C)Cc1cc(CNC(=O)CN2CCN(C[C@H](O)COc3ccc(F)cc3)CC2)nn1-c1ccc(F)cc1` [KKRE10228, (S)-2-(4-(3-(4-Fluorophenoxy)-2-hydroxypropyl)piperazin-1-yl)-N-((1-(4-fluorophenyl)-5-isobutyl-1H-pyrazol-3-yl)methyl)acetamide]: the inhibition at 101 µM on TREK-1 channel amounted to 58.6 ± 4.35%. Besides, the inhibition in assay [1] is 73.2%.

With `Cc1ccc(F)cc1-n1nc(CNC(=O)CN2CCN(C[C@H](O)COc3ccc(F)cc3)CC2)cc1CC(C)C` [KKRE10229, (S)-N-((1-(5-Fluoro-2-methylphenyl)-5-isobutyl-1H-pyrazol-3-yl)methyl)-2-(4-(3-(4-fluorophenoxy)-2-hydroxypropyl)piperazin-1-yl)acetamide], the inhibition at 101 µM on TREK-1 channel was found to be 74.1 ± 2.75%. In addition, the inhibition in assay [1] is 77.6%.

In the case of `CC(C)Cc1cc(CNC(=O)CN2CCN(C[C@H](O)COc3ccc(F)cc3)CC2)nn1-c1cc(Cl)cc(Cl)c1` [KKRE10230, (S)-N-((1-(3,5-Dichlorophenyl)-5-isobutyl-1H-pyrazol-3-yl)methyl)-2-(4-(3-(4-fluorophenoxy)-2-hydroxypropyl)piperazin-1-yl)acetamide], the inhibition at 101 µM on TREK-1 channel amounted to 78.1 ± 2.95%. In addition, the inhibition in assay [1] was 60%.
